According to patent US8476408B2, “Unacylated ghrelin and analogs as therapeutic agents for vascular remodeling in diabetic patients and treatment of cardiovascular disease” (Alize Pharma SAS, priority 2008, dated 2013):
Where no end group is shown, it is not given here.

Experiments:
CAC [1] = assay: Senescence of CAC recovered from type 2 diabetic patients treated with UAG; set-up: species or system human; conditions: 12 hours of treatment in vivo, FIG. 2D
Procedure: All the subjects underwent the following testing session: • UAG (3.0 μg/kg/h iv. as infusion for 12 h from 0 to 12 hours); • isotonic saline (infusion from 0 to 12 hours).
All tests were performed starting at 08.30-09.00 a.m. after overnight fasting, 30 minutes after an indwelling catheter had been placed into a forearm vein by slow infusion of isotonic saline. Blood samples were taken at 0 h, 6 h and 12 h.
CAC Senescence—Senescence was evaluated by acidic β-gal activity on CAC recovered from normal subjects cultured in EGM2 medium for 4 days with UAG or AGE+UAG and saline- or UAG-treated diabetic patients (Ref. 22). Briefly, CAC were washed in phosphate-buffered saline, fixed for 3 min at room temperature in 2% paraformaldehyde, washed, and incubated for24 h at 37° C. with fresh SA-β-gal stain solution: 1 mg/ml 5-bromo-4-chloro-3-indolyl β-D-galactopyranoside (X-gal), 5 mM/liter potassium ferrocyanide, 5 mM/liter ferricyanide, 150 mM/liter NaCl, 2 mM/liter MgCl2, 0.01% sodium deoxycholate, and 0.02% Nonidet P-40. SA-β-gal-positive cells were counted manually by 3 independent investigators.

CAC [2] = assay: CAC senescence (acidic β-gal activity), cultured CAC; format: cell-based, human; conditions: FIG. 2A
Procedure: (§1) Peripheral-blood mononuclear cells (PB-MNC) isolated by Fycoll Histopaque 1077 (Sigma) were resuspended in 20% FBS 199 Medium and plated on fibronectin-coated dishes (Biocoat, Becton Dickinson Labware) as described by Hill et al. (Ref. 19). Human UAG studies were performed on CAC recovered from normal donors and diabetic patients. The purity of sorted cells was assessed by FACS analysis (Ref. 20). For experiments, the isolated CAC were cultured under 5% CO2 at 37° C. for 4 days on 20 μg/ml fibronectin-coated dishes in EGM-2 medium containing 10% FBS, hydrocortisone, human Fibroblast Growth Factor, Vascular Endothelial Growth Factor, Insulin Growth Factor 1, ascorbic acid, human Epidermal Growth Factor, gentamicin and amphotericin-B (Cambrex, Walkersville, Md., USA) alone or in combination with 1 μM UAG and 1.2 mg/ml AGE. In selected experiments, isolated CAC were cultured in EBM-2 medium (Cambrex, Walkersville, Md., USA) supplemented with 10 ng/ml of IL-3. FACS was used to analyze their phenotype (anti-CD45, anti-CD31, anti-CD105, anti-CD14 antibodies were used) (Ref. 22).
CAC Senescence—Senescence was evaluated by acidic β-gal activity on CAC recovered from normal subjects cultured in EGM2 medium for 4 days with UAG or AGE+UAG and saline- or UAG-treated diabetic patients (Ref. 22). […] SA-β-gal-positive cells were counted manually by 3 independent investigators.

CAC [3] = assay: Matrigel-plug assay of de novo vessel formation by CAC from treated diabetic patients; format: in vivo, SCID mice
Procedure: Matrigel-plug assay—For murine angiogenesis assay, untreated or UAG-treated CAC, obtained from type 2 diabetic patients, were counted and resuspended in DMEM (4×10^6 in 250 μL DMEM). Cells were chilled in ice, labelled with fluorescent dye carboxyfluorescein diacetate succinimidyl ester (CSFE, Molecular Probes), added to 250 μL Matrigel containing of IL-3 (100 ng/ml) at 4° C., and injected sc. in the abdominal paramedian region of 7 week old NOD/SCID mice (5 mice per group). After 15 days, mice were killed and Matrigel plugs were recovered, fixed in 10% buffered formalin and embedded in paraffin for immunohistochemistry.
Immunohistochemistry and immunofluorescence—For immunohistochemistry, sections from paraffin-embedded blocks of Matrigel plugs were collected onto poly-lysine-coated slides. Endogenous peroxidase activity was blocked with 6% H2O2 for 8 minutes at room temperature. To detect cells labelled with fluorescent dye CSFE, anti-Fluorescein/Oregon Green polyclonal Abs (Molecular Probes) were applied to slides overnight at 4° C. […] The percentage of positive cells was counted in 4 non-sequential sections for each experiment at ×40 magnification. […] The number of MHC II or HLA I positive vessels was determined by counting 10 randomly selected fields in three different samples.

CAC [4] = assay: CAC cell-cycle progression (S phase, FACS); format: cell-based, human; conditions: cultured CAC, still evident after 7 days; FIG. 1A
Procedure: as §1, with “FACS was used to analyze their phenotype (anti-CD45, anti-CD31, anti-CD105, anti-CD14 antibodies were used) (Ref. 22).” left out
Flow Cytometry—To analyze CAC cell-cycle progression, cells recovered from diabetic, healthy subjects, NOD/SCID, ob/ob and wt mice, were cultured in EBM-2 supplemented with IL-3 (10 ng/ml), FACS analysis was performed as previously described (Ref. 20). Cell surface molecules were evaluated by flow cytometry as previously described (Ref. 24). Frequency of marker-positive cells is expressed as mean±standard deviation (SD).

GHSR-1a = GHSR-1a (Homo sapiens, UniProt Q92847); conditions: cited from earlier work
CAC [5] = assay: Detection of ROS in CAC (DCF-DA assay, FACS); format: cell-based, human
Procedure: as §1
Detection of ROS—DCF-DA (0.5 μM final concentration) was added to CAC in the indicated culture conditions. At the indicated times, the cells were subjected to FACS analysis and processed as previously described (Ret. 22). H2O2 was used as positive control.

GHSR-1a, sequence (Q92847 whole entry): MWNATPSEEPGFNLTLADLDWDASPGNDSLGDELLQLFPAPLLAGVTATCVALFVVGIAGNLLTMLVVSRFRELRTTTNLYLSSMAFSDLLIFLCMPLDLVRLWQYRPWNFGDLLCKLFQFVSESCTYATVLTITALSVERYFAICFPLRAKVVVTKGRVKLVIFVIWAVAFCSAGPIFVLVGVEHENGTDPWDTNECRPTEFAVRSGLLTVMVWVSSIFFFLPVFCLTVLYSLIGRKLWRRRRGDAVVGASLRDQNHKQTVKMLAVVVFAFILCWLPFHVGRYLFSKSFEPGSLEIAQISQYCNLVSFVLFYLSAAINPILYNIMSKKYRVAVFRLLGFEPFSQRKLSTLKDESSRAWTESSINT

1-NH2Gly-Ser-Ser-Phe-Leu-Ser-Pro-Glu-His-Gln-Arg-Val-Gln-Gln-Arg-Lys-Glu-Ser-Lys-Lys-Pro-Pro-Ala-Lys-Leu-Gln-Pro-Arg-28 (GSSFLSPEHQRVQQRKESKKPPAKLQPR; ends and bridges not checked; listed as Homo sapiens) [UAG]
number of senescent cells (CAC [1]): reduced the number of senescent cells | number of senescent cells (SA-β-gal activity) (CAC [2]; CAC cultured with UAG alone): reduce the number of senescent cells | number of SA-β-gal positive cells (CAC [2]; UAG added to AGE-cultured CAC): significant reduction in the number of SA-β-gal positive cells | formation of functional vessels by labelled CAC (CAC [3]; CAC from UAG-treated diabetic patients, Matrigel plugs with IL-3, 15 days, FIG. 4E): formed functional vessels | origin of neo-vessels (human HLA Class I vs mouse MHC II) (CAC [3]; immunofluorescence of Matrigel plugs, FIG. 4F): majority of vessels are lined by human HLA Class I positive cells | percentage of cells in S phase (CAC [4]): significant increase in the percentage of cells in S phase | binding to GHSR-1a (GHSR-1a): fails to bind GHSR-1a | level of ROS production in AGE-cultured cells (CAC [5]; AGE-cultured CAC, FIG. 1C, 1F): reduced | intracellular ROS production in diabetic-recovered cells (CAC [5]; CAC isolated from type 2 diabetic patients, FIG. 1D): reduced intracellular ROS production | baseline level of ROS production (CAC [5]; compared to untreated cells, FIG. 1B, 1E): drastically reduces the baseline level of ROS production
